Consider six cell lines from the supplement of paper PMC10307832.

Common to all, as to experiment: relative viability (nuclei count vs DMSO), 5 days (fraction); higher = more cells survive
Compound in experiment [1]: Cn1cc(-c2cnn3c(N)c(Br)c([C@@H]4CCCNC4)nc23)cn1 + COc1cccc2cc(-c3nc([C@H]4CC[C@H](C(=O)O)CC4)n4ncnc(N)c34)[nH]c12 [OSI-027] (partner 0.5 µM)
Put shortly: (§1)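 Lung cancer cell lines were seeded in 1536-well plates and dosed by pin tool the next day, with either a single drug or a fixed anchor-drug dose combined with five library-drug doses (not always all listed) spaced in √10 steps. Five days later, one step fixed the cells and stained their nuclei (final 0.05% Triton X-100, 1% formaldehyde, 1 ug/ml Hoechst), and nuclei were counted on 4× images. Relative viability is the nuclei count in treated wells divided by the count in vehicle wells, and each value is the median of duplicate plates.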

Compound in experiment [2]: Cn1cc(-c2cnn3c(N)c(Br)c([C@@H]4CCCNC4)nc23)cn1 + CC(=O)Nc1cccc(-n2c(=O)n(C3CC3)c(=O)c3c(Nc4ccc(I)cc4F)n(C)c(=O)c(C)c32)c1 [Trametinib] (partner 0.02 µM)
Put shortly:
as §1

Compound in experiment [3]: Cn1cc(-c2cnn3c(N)c(Br)c([C@@H]4CCCNC4)nc23)cn1 + C[C@]1(O)C[C@@H](c2nc(-c3ccc4ccc(-c5ccccc5)nc4c3)c3c(N)nccn32)C1 [Linsitinib] (partner 1 µM)
Put shortly:
as §1

Compound in experiment [4]: Cn1cc(-c2cnn3c(N)c(Br)c([C@@H]4CCCNC4)nc23)cn1 + CS(=O)(=O)CCNCc1ccc(-c2ccc3ncnc(Nc4ccc(OCc5cccc(F)c5)c(Cl)c4)c3c2)o1 [Lapatinib] (partner 2 µM)
In outline:
as §1

Take NCI-H2087: the relative viability in experiment [1] (first compound 0.05 µM) amounted to 0.498; in experiment [1] (first compound 0.1581 µM) it was 0.696; in experiment [1] (first compound 0.5 µM), 0.641; in experiment [1] (first compound 1.581 µM), 0.454; in experiment [1] (first compound 5 µM), 0.503; in experiment [2] (first compound 0.05 µM) it was 0.151. Besides, the relative viability in experiment [2] (first compound 0.1581 µM) is 0.203; in experiment [2] (first compound 0.5 µM), 0.178; in experiment [2] (first compound 1.581 µM), 0.164; in experiment [2] (first compound 5 µM) it was 0.189; in experiment [3] (first compound 0.05 µM), 1.1; in experiment [3] (first compound 0.1581 µM), 1.07. In addition, the relative viability in experiment [3] (first compound 0.5 µM) is 0.998; in experiment [3] (first compound 1.581 µM), 1.04; in experiment [3] (first compound 5 µM) it was 0.857; in experiment [4] (first compound 0.05 µM) it was 1.29; in experiment [4] (first compound 0.1581 µM), 1.17; in experiment [4] (first compound 0.5 µM), 0.996. The relative viability in experiment [4] (first compound 1.581 µM) is 1.21; in experiment [4] (first compound 5 µM) it was 0.985.

As for NCI-H2126, the relative viability turned out to be 0.715 in experiment [1] (first compound 0.05 µM); 0.744 in experiment [1] (first compound 0.1581 µM); 0.74 in experiment [1] (first compound 0.5 µM); 0.673 in experiment [1] (first compound 1.581 µM); 0.672 in experiment [1] (first compound 5 µM); 0.628 in experiment [2] (first compound 0.05 µM). Further, the relative viability in experiment [2] (first compound 0.1581 µM) amounted to 0.549; in experiment [2] (first compound 0.5 µM), 0.548; in experiment [2] (first compound 1.581 µM), 0.561; in experiment [2] (first compound 5 µM), 0.597; in experiment [3] (first compound 0.05 µM), 0.842; in experiment [3] (first compound 0.1581 µM) it was 0.723. Further, the relative viability in experiment [3] (first compound 0.5 µM) is 0.714; in experiment [3] (first compound 1.581 µM), 0.666; in experiment [3] (first compound 5 µM) it was 0.686; in experiment [4] (first compound 0.05 µM), 0.743; in experiment [4] (first compound 0.1581 µM) it was 0.847; in experiment [4] (first compound 0.5 µM), 0.753. Moreover, the values for the relative viability in experiment [4] (first compound 1.581 µM) and in experiment [4] (first compound 5 µM) were 0.642 and 0.817, respectively.

As to NCI-H2228, the relative viability in experiment [1] (first compound 0.05 µM) was determined as 0.689; in experiment [1] (first compound 0.1581 µM), 0.674; in experiment [1] (first compound 0.5 µM) it was 0.592; in experiment [1] (first compound 1.581 µM) it was 0.458; in experiment [1] (first compound 5 µM), 0.315; in experiment [2] (first compound 0.05 µM), 0.717. Further, the relative viability stood at 0.563 in experiment [2] (first compound 0.1581 µM); 0.5 in experiment [2] (first compound 0.5 µM); 0.282 in experiment [2] (first compound 1.581 µM); 0.239 in experiment [2] (first compound 5 µM); 0.975 in experiment [3] (first compound 0.05 µM); 0.895 in experiment [3] (first compound 0.1581 µM). For the same cell line, the relative viability was determined as 0.628 in experiment [3] (first compound 0.5 µM); 0.586 in experiment [3] (first compound 1.581 µM); 0.459 in experiment [3] (first compound 5 µM); 1.54 in experiment [4] (first compound 0.05 µM); 1.14 in experiment [4] (first compound 0.1581 µM); 1.2 in experiment [4] (first compound 0.5 µM). For the same cell line, the relative viability in experiment [4] (first compound 1.581 µM) was found to be 0.493; in experiment [4] (first compound 5 µM), 0.378.

Regarding NCI-H2347, the relative viability in experiment [1] (first compound 0.05 µM) is 0.418; in experiment [1] (first compound 0.1581 µM), 0.594; in experiment [1] (first compound 0.5 µM) it was 0.291; in experiment [1] (first compound 1.581 µM), 0.377; in experiment [1] (first compound 5 µM), 0.326; in experiment [2] (first compound 0.05 µM), 0.272. The relative viability in experiment [2] (first compound 0.1581 µM) amounted to 0.285; in experiment [2] (first compound 0.5 µM), 0.298; in experiment [2] (first compound 1.581 µM) it was 0.251; in experiment [2] (first compound 5 µM) it was 0.232; in experiment [3] (first compound 0.05 µM), 0.992; in experiment [3] (first compound 0.1581 µM), 1.01. For the same cell line, the relative viability in experiment [3] (first compound 0.5 µM) came out at 0.986; in experiment [3] (first compound 1.581 µM) it was 0.917; in experiment [3] (first compound 5 µM), 0.85; in experiment [4] (first compound 0.05 µM), 0.919; in experiment [4] (first compound 0.1581 µM), 1.03; in experiment [4] (first compound 0.5 µM) it was 1.05. Further, the relative viability in experiment [4] (first compound 1.581 µM) amounted to 0.902; in experiment [4] (first compound 5 µM), 0.645.

Regarding NCI-H2405, the relative viability in experiment [1] (first compound 0.05 µM) worked out at 0.607; in experiment [1] (first compound 0.1581 µM), 0.594; in experiment [1] (first compound 0.5 µM) it was 0.652; in experiment [1] (first compound 1.581 µM), 0.623; in experiment [1] (first compound 5 µM) it was 0.54; in experiment [2] (first compound 0.05 µM), 0.642. The relative viability in experiment [2] (first compound 0.1581 µM) was 0.644; in experiment [2] (first compound 0.5 µM), 0.553; in experiment [2] (first compound 1.581 µM), 0.577; in experiment [2] (first compound 5 µM), 0.455; in experiment [3] (first compound 0.05 µM) it was 0.922; in experiment [3] (first compound 0.1581 µM) it was 0.875. Moreover, the relative viability worked out at 1.02 in experiment [3] (first compound 0.5 µM); 0.842 in experiment [3] (first compound 1.581 µM); 0.785 in experiment [3] (first compound 5 µM); 1.06 in experiment [4] (first compound 0.05 µM); 1.17 in experiment [4] (first compound 0.1581 µM); 1.01 in experiment [4] (first compound 0.5 µM). Moreover, the relative viability in experiment [4] (first compound 1.581 µM) came to 0.993; in experiment [4] (first compound 5 µM), 0.85.

NCI-H3122: the relative viability is 1.26 in experiment [1] (first compound 0.05 µM); 1.06 in experiment [1] (first compound 0.1581 µM); 0.987 in experiment [1] (first compound 0.5 µM); 0.543 in experiment [1] (first compound 1.581 µM); 0.929 in experiment [1] (first compound 5 µM); 0.267 in experiment [2] (first compound 0.05 µM). The relative viability in experiment [2] (first compound 0.1581 µM) worked out at 0.236; in experiment [2] (first compound 0.5 µM), 0.212; in experiment [2] (first compound 1.581 µM), 0.223; in experiment [2] (first compound 5 µM), 0.257; in experiment [3] (first compound 0.05 µM) it was 1.02; in experiment [3] (first compound 0.1581 µM), 1.06. Further, the relative viability in experiment [3] (first compound 0.5 µM) stood at 0.964; in experiment [3] (first compound 1.581 µM), 1.08; in experiment [3] (first compound 5 µM) it was 1.09; in experiment [4] (first compound 0.05 µM), 1.1; in experiment [4] (first compound 0.1581 µM) it was 1.07; in experiment [4] (first compound 0.5 µM), 1.07. For the same cell line, the relative viability in experiment [4] (first compound 1.581 µM) is 1.04; in experiment [4] (first compound 5 µM) it was 1.05.
